According to US11549123B2, “Plant EPSP synthases and methods of use” (PIONEER HI-BRED INTERNATIONAL, INC., priority 2015, dated 2023):
pKi: −log10 of the molar value.

Tests used:
Format in all cases: biochemical
[1] = molecular target: Zea mays EPSPS variant 4R (Zea mays, UniProt O24566, A3R); experiment: EPSPS reaction rate with or without 10 uM glyphosate, 4R; conditions: pH 7; read-out: Reaction rate with 10 μM glyph, % no glyph; further: 50 µM PEP and S3P
[2] = molecular target: Zea mays EPSPS variant 4N (Zea mays, UniProt O24566, A3N); experiment: EPSPS reaction rate with or without 10 uM glyphosate, 4N; conditions: pH 7; read-out: Reaction rate with 10 μM glyph, % no glyph; further: 50 µM PEP and S3P
Sequence of Zea mays EPSPS variant 4N (O24566 entry or part of it A3N): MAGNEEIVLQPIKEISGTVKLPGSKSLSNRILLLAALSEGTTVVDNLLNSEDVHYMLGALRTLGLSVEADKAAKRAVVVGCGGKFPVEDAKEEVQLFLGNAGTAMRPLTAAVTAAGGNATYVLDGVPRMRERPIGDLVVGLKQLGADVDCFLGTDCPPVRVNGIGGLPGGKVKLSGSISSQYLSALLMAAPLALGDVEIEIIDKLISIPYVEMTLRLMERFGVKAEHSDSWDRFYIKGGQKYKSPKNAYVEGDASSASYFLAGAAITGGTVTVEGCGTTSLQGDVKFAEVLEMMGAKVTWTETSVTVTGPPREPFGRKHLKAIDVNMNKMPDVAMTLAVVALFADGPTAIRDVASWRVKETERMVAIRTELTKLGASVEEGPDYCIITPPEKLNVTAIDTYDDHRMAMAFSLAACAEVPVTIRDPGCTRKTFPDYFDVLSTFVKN

[3] = molecular target: Sorghum halepense EPSPS with 868-H6 mutations, SEQ ID NO:12 (Sorghum halepense, UniProt H6T5X2, A1R/A3W/A415G/D401G/E301S/E390G/G101A/I207L/K83R/L97C/T278A/T360S/T440Q/V437R/V71Q); experiment: EPSPS substrate saturation kinetics, sorghum H6
Sequence of Sorghum halepense EPSPS with 868-H6 mutations, SEQ ID NO:12 (H6T5X2 entry or part of it with the stated changes): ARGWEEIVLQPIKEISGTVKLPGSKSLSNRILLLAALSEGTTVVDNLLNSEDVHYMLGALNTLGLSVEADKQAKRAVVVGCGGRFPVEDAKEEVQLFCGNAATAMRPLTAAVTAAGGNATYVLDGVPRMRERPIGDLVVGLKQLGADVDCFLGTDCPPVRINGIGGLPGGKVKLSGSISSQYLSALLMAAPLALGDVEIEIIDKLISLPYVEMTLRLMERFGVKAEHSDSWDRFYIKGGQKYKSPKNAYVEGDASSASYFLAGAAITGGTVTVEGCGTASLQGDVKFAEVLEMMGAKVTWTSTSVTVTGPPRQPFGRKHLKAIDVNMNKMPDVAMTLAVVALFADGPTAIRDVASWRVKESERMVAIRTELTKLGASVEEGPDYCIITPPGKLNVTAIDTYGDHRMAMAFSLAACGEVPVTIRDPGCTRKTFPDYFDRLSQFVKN
Method: EPSPS activity was determined by quantifying the phosphate generated from the EPSPS reaction. Release of inorganic phosphate was coupled to reaction with 2-amino-6-mercapto-7-methylpurine ribonucleoside, catalyzed by purine-nucleoside phosphorylase (M R Webb, Proc. Natl. Acad. Sci. 89:4884-4887, 1992). The absorbance change that occurs was monitored at 360 nm, where the extinction is 11,200 M^−1 cm^−1, with a Spectramax plate reader (Molecular Devices). To determine kinetic parameters, the varied substrate was present at seven concentrations (the eighth being the blank, containing no substrate) ranging from 4 to 400 uM and the unvaried substrate present at saturation. […] Reactions were monitored with a Spectramax plate reader. […] KI was then calculated from the following form of the Michaelis-Menten equation for competitive inhibition: KI=KM[I]/(KM app−KM) KM approximates the dissociation constant of the enzyme-substrate complex while kcat is the rate of conversion of substrate to product when the substrate concentration is saturating. kcat/KM is a widely accepted parameter for catalytic efficiency when substrate concentration is low (˜KM). […] The parameter kcat/KM×KI is used to quantify both catalytic efficiency and insensitivity and thus the overall fitness of the enzyme. […]

[4] = molecular target: T1, Zea mays EPSPS variant Zm-P107S (Zea mays, UniProt O24566, P106S); experiment: Substrate saturation kinetic analysis with glyphosate, Zm-P107S
T1 construct: native maize plus P107S; E. coli BL21(DE3), Ni-NTA purified
T1 sequence (O24566 with tags, fused parts or gaps P106S): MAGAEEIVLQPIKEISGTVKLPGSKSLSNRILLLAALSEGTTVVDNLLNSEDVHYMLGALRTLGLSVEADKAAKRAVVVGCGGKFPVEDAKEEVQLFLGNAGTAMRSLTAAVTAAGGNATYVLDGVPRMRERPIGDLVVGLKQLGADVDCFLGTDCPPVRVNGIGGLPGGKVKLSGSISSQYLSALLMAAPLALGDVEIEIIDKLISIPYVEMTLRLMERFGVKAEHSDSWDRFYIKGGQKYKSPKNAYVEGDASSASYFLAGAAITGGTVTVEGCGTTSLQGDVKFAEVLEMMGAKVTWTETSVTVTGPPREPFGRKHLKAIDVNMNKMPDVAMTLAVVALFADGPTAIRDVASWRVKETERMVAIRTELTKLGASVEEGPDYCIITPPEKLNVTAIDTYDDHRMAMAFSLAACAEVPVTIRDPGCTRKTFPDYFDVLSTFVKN

[5] = molecular target: T2, Zea mays EPSPS variant Zm-H6 (868-H6) with H54E (H6-H54E) (Zea mays, UniProt O24566, A1R/A3W/A415G/A71Q/D401G/E301S/E390G/G101A/H53E/I207L/K83R/L97C/T278A/T360S/T440Q/V437R); experiment: Rapid two-rate method for (kcat/KM)*KI, H6-H54E; conditions: [E] 0.07 uM, [Gly] 1000 uM
T2 construct: 868-H6 plus H54E; E. coli BL21(DE3), Ni-NTA purified
T2 sequence (O24566 with tags, fused parts or gaps A1R/A3W/H53E/A71Q/K83R/L97C/G101A/I207L/T278A/E301S/T360S/E390G/D401G/A415G/V437R/T440Q): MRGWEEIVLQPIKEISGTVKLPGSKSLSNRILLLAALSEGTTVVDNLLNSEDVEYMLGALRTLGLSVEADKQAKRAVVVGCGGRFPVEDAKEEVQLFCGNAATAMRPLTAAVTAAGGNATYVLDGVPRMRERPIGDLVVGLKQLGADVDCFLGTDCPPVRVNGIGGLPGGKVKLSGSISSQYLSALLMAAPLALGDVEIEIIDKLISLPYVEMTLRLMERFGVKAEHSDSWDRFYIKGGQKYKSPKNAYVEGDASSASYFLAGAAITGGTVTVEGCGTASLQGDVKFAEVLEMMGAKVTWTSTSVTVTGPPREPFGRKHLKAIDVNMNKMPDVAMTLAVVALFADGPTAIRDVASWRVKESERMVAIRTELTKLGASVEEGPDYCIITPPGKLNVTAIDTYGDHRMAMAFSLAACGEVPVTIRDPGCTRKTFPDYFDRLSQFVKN
Description: There are several practical considerations for accurately estimating (kcat/KM)*KI with the rapid method. […] 2) The inhibitor concentration must be adjusted so as to obtain a degree of inhibition that minimally amplifies the error in the term v0-vi in Equation 3. If inhibition is too little, v0-vi will be small, and the error in the multiplier vi×v0/(v0-vi) will be large. […] 3) Substrate concentration should be set at the approximate KM of the parental variant(s), subject to the sensitivity of the assay. High substrate concentration obscures sensitivity to the inhibitor and reduces stringency for capturing improvements in KM. Depending on the necessity for speed, there exists opportunity for customizing enzyme and inhibitor concentrations. […] The rapid method was repeated for those and obtained data that correlated better with data obtained by substrate saturation analysis. For screening purposes however, that correlation step is not necessary. Conditions can be set so that variants with a pre-determined minimal fitness level are accurately quantified.
In Table 15, parameters above the heavy line for the rapid method were obtained under standard conditions. For variants shown below the heavy line, the rapid analysis was repeated with enzyme or glyphosate concentrations adjusted as needed to generate sufficient signal within the limits for linear initial rates.

Sequence of Zea mays EPSPS variant 4R (O24566 entry or part of it A3R): as the sequence (O24566 entry or part of it A3N) above, with N4R counted along it

What does the source list for `O=C(O)CNCP(=O)(O)O` [glyphosate, N-phosphonomethylglycine]?
activity at 10 µM [1]: 7.38%; activity at 10 µM [2]: 7.56%; pKi [3]: 3.11; (kcat/KM)*KI ([3]; PEP as substrate, glyphosate as inhibitor): 8080; pKi [4]: 6.38; (kcat/KM)*KI ([4]; substrate saturation, Zm-P107S): 51; (kcat/KM)*KI [5]: 4529
